Measurements taken from US20260325685A1, “Radiopharmaceutical Compositions Targeting Carbonic Anhydrase IX and Uses Thereof” (RayzeBio, Inc., priority 2023, published 2026).
pKd: −log10 of the molar value. Read-outs that look alike come from different tables or passages of the source.

Key:
human CA-IX = target: T1, human CA-IX (Homo sapiens, UniProt Q16790); assay: Surface Plasmon Resonance (SPR) binding kinetics to recombinant human CA-IX (Biacore 8K, single-cycle kinetics, 1:1 binding model); details: for pKd: SPR, 25° C., pH 7.4, read-out: CAIX KD
T1 construct: purchased Acro CA9-H82E3
Procedure: (§1) G1. Surface Plasmon Resonance Assay Conditions for hCA-IX and hCA-XII
(§2) Surface Plasmon Resonance (SPR) experiments were conducted on a Biacore 8K instrument (Cytiva, Marlborough, MA) to determine the binding kinetics of the compound to recombinant human CA-IX (Acro, CA9-H82E3) and CA-XII (Creative BioMart, CA12-261H) proteins. The ligands were diluted to 10 μg/mL in PBS-P+ buffer (20 mM phosphate buffer, pH 7.4, with 2.7 mM KCl, 137 mM NaCl, and 0.05% Tween 20) and captured on Series S Streptavidin Sensor Chips (Cytiva, 29699621) to 1200-1800 response units (RU) using a flow rate of 5 μL/min and injection times of 180 seconds for human CA-IX and 75 seconds for human CA-XII. Analyte binding was evaluated using a single-cycle kinetics method over 9 analyte concentrations (100-0.39 nM) in PBS-P+ buffer with 1% DMSO using a 50 μL/min. flow rate, 120 second association time, and 1200 second dissociation time. The flow cell temperature was set to 25° C. Analyte binding curves were fit to a 1:1 binding kinetic model in Biacore Insight Evaluation software (version 4.0.8.20368) following reference flow cell subtraction and DMSO correction to derive the association and dissociation binding constants.

human CA-XII = target: T2, human CA-XII (Homo sapiens, UniProt O43570); assay: Surface Plasmon Resonance (SPR) binding kinetics to recombinant human CA-XII (Biacore 8K, single-cycle kinetics, 1:1 binding model); details: pH 7.4, read-out: CAXII KD
T2 construct: purchased Creative BioMart CA12-261H
Procedure: as §1, §2

T2 sequence (O43570 25-354): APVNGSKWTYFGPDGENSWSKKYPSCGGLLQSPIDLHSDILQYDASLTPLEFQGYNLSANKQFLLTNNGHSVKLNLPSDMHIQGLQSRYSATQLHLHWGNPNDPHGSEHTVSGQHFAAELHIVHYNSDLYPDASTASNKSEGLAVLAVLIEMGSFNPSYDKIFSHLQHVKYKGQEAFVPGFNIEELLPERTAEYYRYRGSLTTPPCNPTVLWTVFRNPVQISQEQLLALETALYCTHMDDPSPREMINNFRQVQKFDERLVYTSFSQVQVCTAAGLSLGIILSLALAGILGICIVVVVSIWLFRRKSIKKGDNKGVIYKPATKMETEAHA

SMILES	pKd (human CA-IX; Chelated Metal: Lu-175)	pKd (human CA-XII; Chelated Metal: Lu-175, 25° C.)	further results
CC(CCCC(=O)N1CCC(C(N)=O)(C(=O)NCC(=O)NC2(C(=O)NCCn3cc(COc4ccc5nc(S(N)(=O)=O)sc5c4)nn3)CCN(C(=O)CN3CCN(CC(=O)O)CCN(CC(=O)O)CCN(CC(=O)O)CC3)CC2)CC1)(c1ccc(O)cc1)c1ccc(O)cc1.[Lu+3] [Compound 117.8]	> 9.00	< 8.00	
NS(=O)(=O)c1nnc(NC(=O)C23CCC(c4cn(CCNC(=O)[C@@H]5CN(C(=O)CN6CCN(CC(=O)O)CCN(CC(=O)O)CCN(CC(=O)O)CC6)CCN5C(=O)CC[C@H](NC(=O)C[C@H](NC(=O)c5n[nH]c6ccc(O)cc56)C(=O)O)C(=O)O)nn4)(CC2)CC3)s1.[Lu+3] [Compound 109.45]	> 9.00	> 9.00	
CC(CCC(=O)N1CCOC[C@@H]1C(=O)N[C@@H](CC(=O)N1CCN(C(=O)CN2CCN(CC(=O)O)CCN(CC(=O)O)CCN(CC(=O)O)CC2)C[C@@H]1C(=O)NCCn1cc(C23CC(C(=O)Nc4nnc(S(N)(=O)=O)s4)(C2)C3)nn1)C(=O)O)(c1ccc(O)cc1)c1ccc(O)cc1.[Lu+3] [Compound 108.4]	8.60 to 9.00	< 8.00	
CC(CCC(=O)N[C@@H](CC(=O)N[C@@H](CCC(=O)NC1(C(=O)NCCOCCOCCNC(=O)CN2CCN(CC(=O)O)CCN(CC(=O)O)CCN(CC(=O)O)CC2)CN(C(=O)Cn2cc(CCCC(=O)Nc3nnc(S(N)(=O)=O)s3)nn2)C1)C(=O)O)C(=O)O)(c1ccc(O)cc1)c1ccc(O)cc1.[Lu+3] [Compound 103.1]	8.60 to 9.00	8.00 to 8.60	
CC(CCCC(=O)N1CCC(C(N)=O)(C(=O)NCC(=O)N2CCN(C(=O)CN3CCN(CC(=O)O)CCN(CC(=O)O)CC3)C[C@H]2C(=O)NCCn2cc(C34CC(C(=O)Nc5nnc(S(N)(=O)=O)s5)(C3)C4)nn2)CC1)(c1ccc(O)cc1)c1ccc(O)cc1.[Cu+2] [Compound 126]			pKd (human CA-IX; Chelated Metal: Cu (cold)): > 9.00; pKd (human CA-XII; Chelated Metal: Cu (cold), 25° C.): < 8.00
NS(=O)(=O)c1nnc(NC(=O)C23CC(c4cn(CCCC[C@@H](C(=O)NCCOCCOCCNC(=O)CN5CCN(CC(=O)O)CCN(CC(=O)O)CCN(CC(=O)O)CC5)n5cc(C[C@H](NC(=O)C[C@H](NC(=O)c6n[nH]c7ccccc67)C(=O)O)C(=O)O)nn5)nn4)(C2)C3)s1.[Lu+3] [Compound 101.1]	> 9.00	8.00 to 8.60	
NS(=O)(=O)c1nnc(NC(=O)C23CC(c4cn(CCNC(=O)[C@@H]5CN(C(=O)CN6CCN(CC(=O)O)CCN(CC(=O)O)CCN(CC(=O)O)CC6)CCN5C(=O)C[C@H](NC(=O)C[C@H](NC(=O)c5ccc(C6CC6)nc5)C(=O)O)C(=O)O)nn4)(C2)C3)s1.[Lu+3] [Compound 109.12]	8.60 to 9.00	8.00 to 8.60	
NS(=O)(=O)c1nnc(NC(=O)C23CC(c4cn(CCNC(=O)[C@@H]5CN(C(=O)CN6CCN(CC(=O)O)CCN(CC(=O)O)CCN(CC(=O)O)CC6)CCN5C(=O)C[C@H](NC(=O)C[C@H](NC(=O)c5cc(C(F)(F)F)[nH]n5)C(=O)O)C(=O)O)nn4)(C2)C3)s1.[Lu+3] [Compound 109.6]	> 9.00	8.00 to 8.60	
NS(=O)(=O)c1nnc(NC(=O)C23CCC(c4cn(CCNC(=O)[C@@H]5CN(C(=O)CN6CCN(CC(=O)O)CCN(CC(=O)O)CCN(CC(=O)O)CC6)CCN5C(=O)CC[C@H](NC(=O)C[C@H](NC(=O)c5n[nH]c6ccccc56)C(=O)O)C(=O)O)nn4)(CC2)CC3)s1.[Lu+3] [Compound 109.50]	> 9.00	> 9.00	
NS(=O)(=O)c1nnc(NC(=O)C23CC(c4cn(CCNC(=O)[C@H]5CN(C(=O)CN6CCN(CC(=O)O)CCN(CC(=O)O)CCN(CC(=O)O)CC6)CCN5C(=O)CC[C@H](NC(=O)c5n[nH]c6ccccc56)C(=O)O)nn4)(C2)C3)s1.[Lu+3] [Compound 107.17]	> 9.00	8.60 to 9.00	
CC(CCCC(=O)N1CCC(C(N)=O)(C(=O)NCC(=O)N2CCN(C(=O)CC[C@H](C(=O)O)N3CCN(CC(=O)O)CCN(CC(=O)O)CCN(CC(=O)O)CC3)C[C@H]2C(=O)NCCn2cc(C34CC(C(=O)Nc5nnc(S(N)(=O)=O)s5)(C3)C4)nn2)CC1)(c1ccc(O)cc1)c1ccc(O)cc1.[Lu+3] [Compound 127.1]	> 9.00	< 8.00	
NS(=O)(=O)c1nnc(NC(=O)C23CCC(c4cn(CCNC(=O)[C@@H]5CN(C(=O)CN6CCN(CC(=O)O)CCN(CC(=O)O)CCN(CC(=O)O)CC6)CCN5C(=O)CC[C@H](NC(=O)C[C@H](NC(=O)CCC5CCCCC5)C(=O)O)C(=O)O)nn4)(CC2)CC3)s1.[Lu+3] [Compound 109.44]	> 9.00	> 9.00	
CC(CCC(=O)N[C@@H](CC(=O)N[C@@H](CC(=O)N1CCN(C(=O)CN2CCN(CC(=O)O)CCN(CC(=O)O)CCN(CC(=O)O)CC2)C[C@H]1C(=O)NCCn1cc(C23CCC(C(=O)Nc4nnc(S(N)(=O)=O)s4)(CC2)C3)nn1)C(=O)O)C(=O)O)(c1ccc(O)cc1)c1ccc(O)cc1.[Lu+3] [Compound 107.2]	> 9.00	> 9.00	
CC(CCCC(=O)N[C@@H](CC(=O)N[C@@H](CC(=O)N1CCN(C(=O)CN2CCN(CC(=O)O)CCN(CC(=O)O)CCN(CC(=O)O)CC2)C[C@H]1C(=O)NCCn1cc(C23CC(C(=O)Nc4nnc(S(N)(=O)=O)s4)(C2)C3)nn1)C(=O)O)C(=O)O)(c1ccc(O)cc1)c1ccc(O)cc1 [Compound 109.62]			pKd (human CA-IX; Chelated Metal: None): > 9.00; Ratio (CAXII/CAIX) (human CA-IX; KD ratio CAXII/CAIX, Chelated Metal: None): *** (10 < *** ≤ 50); pKd (human CA-XII; Chelated Metal: None, 25° C.): < 8.00
NS(=O)(=O)c1nnc(NC(=O)C23CC(c4cn(CCNC(=O)[C@@H]5CN(C(=O)CN6CCN(CC(=O)O)CCN(CC(=O)O)CCN(CC(=O)O)CC6)CCN5C(=O)CNC(=O)C5(C(=O)O)CCN(C(=O)Cc6ccc7[nH]ncc7c6)CC5)nn4)(C2)C3)s1.[Lu+3] [Compound 112.16]	8.00 to 8.60	< 8.00	
CC(CCC(=O)N[C@@H](CC(=O)N[C@@H](CC(=O)N1CCN(C(=O)CN2CCN(CC(=O)O)CCN(CC(=O)O)CCN(CC(=O)O)CC2)C[C@H]1C(=O)NCCn1cc(C23CC(C(=O)Nc4nnc(S(N)(=O)=O)s4)(C2)C3)nn1)C(=O)O)C(=O)O)(c1ccc(O)cc1)c1ccc(O)cc1.[Lu+3] [Compound 107.38]	> 9.00	< 8.00	
NS(=O)(=O)c1nnc(NC(=O)C23CC(c4cn(CCNC(=O)[C@@H]5CN(C(=O)CN6CCN(CC(=O)O)CCN(CC(=O)O)CCN(CC(=O)O)CC6)CCN5C(=O)C[C@H](Nc5ncc(C(=O)NCc6n[nH]c7ccccc67)cn5)C(=O)O)nn4)(C2)C3)s1.[Lu+3] [Compound 111.10]	8.00 to 8.60	< 8.00	
NS(=O)(=O)c1nnc(NC(=O)C23CCC(c4cn(CCNC(=O)[C@@H]5CN(C(=O)CN6CCN(CC(=O)O)CCN(CC(=O)O)CCN(CC(=O)O)CC6)CCN5C(=O)CC[C@H](NC(=O)C[C@H](NC(=O)CCc5ccc(O)cc5)C(=O)O)C(=O)O)nn4)(CC2)CC3)s1.[Lu+3] [Compound 109.43]	> 9.00	> 9.00	
CCCCNc1c(F)c(S(N)(=O)=O)c(F)c(F)c1S(=O)(=O)CCOCc1cn(CCNC(=O)[C@H]2CN(C(=O)CN3CCN(CC(=O)O)CCN(CC(=O)O)CCN(CC(=O)O)CC3)CCN2C(=O)C[C@H](NC(=O)[C@@H]2COCCN2C(=O)CCC(C)(c2ccc(O)cc2)c2ccc(O)cc2)C(=O)O)nn1.[Lu+3] [Compound 107.15]	8.60 to 9.00	< 8.00	
NC(=O)C1(C(=O)NCC(=O)N2CCN(C(=O)CN3CCN(CC(=O)O)CCN(CC(=O)O)CCN(CC(=O)O)CC3)C[C@H]2C(=O)NCCn2cc(C34CC(C(=O)Nc5nnc(S(N)(=O)=O)s5)(C3)C4)nn2)CCN(C(=O)Cn2nc(-c3ccc(O)cc3)c3ccc(O)cc32)CC1.[Lu+3] [Compound 107.37]	< 8.00	< 8.00	
Cc1cc(-c2cn(CCNC(=O)[C@@H]3CN(C(=O)CN4CCN(CC(=O)O)CCN(CC(=O)O)CCN(CC(=O)O)CC4)CCN3C(=O)C[C@H](NC(=O)C[C@H](NC(=O)CCC(C)(c3ccc(O)cc3)c3ccc(O)cc3)C(=O)O)C(=O)O)nn2)ccc1C(=O)Nc1nnc(S(N)(=O)=O)s1.[Lu+3] [Compound 107.40]		> 9.00	
N[C@@H](CC(=O)N[C@@H](CCC(=O)N1CCN(C(=O)CN2CCN(CC(=O)O)CCN(CC(=O)O)CCN(CC(=O)O)CC2)C[C@H]1C(=O)NCCn1cc(C23CCC(C(=O)Nc4nnc(S(N)(=O)=O)s4)(CC2)CC3)nn1)C(=O)O)C(=O)O.[Lu+3] [Compound 109.60]	> 9.00	8.60 to 9.00	
CC(CCC(=O)N[C@@H](CC(=O)N[C@@H](CC(=O)N1CCN(C(=O)CN2CCN(CC(=O)O)CCN(CC(=O)O)CCN(CC(=O)O)CC2)C[C@H]1C(=O)NCCn1nnc(C(=O)O)c1C12CC(C(=O)Nc3nnc(S(N)(=O)=O)s3)(C1)C2)C(=O)O)C(=O)O)(c1ccc(O)cc1)c1ccc(O)cc1.[Lu+3] [Compound 107.61]	8.60 to 9.00	< 8.00	
NS(=O)(=O)c1nnc(NC(=O)C23CC(c4cn(CCNC(=O)[C@@H]5CN(C(=O)CN6CCN(CC(=O)O)CCN(CC(=O)O)CCN(CC(=O)O)CC6)CCN5C(=O)C[C@H](Nc5ncc(C(=O)NCCc6ccc(C7CC7)cc6)cn5)C(=O)O)nn4)(C2)C3)s1.[Lu+3] [Compound 111.11]	8.60 to 9.00	< 8.00	
